In patent US20180290977A1, “KDM4 INHIBITORS” (Albert-Ludwigs-University Freiburg, priority 2017, published 2018):
pIC50: −log10 of the molar value. Read-outs that look alike come from different tables or passages of the source.

What was measured:
Assay in all cases: KDM demethylase inhibition (IC50)
Type in all cases: biochemical
KDM5B = KDM5B (Homo sapiens, UniProt Q9UGL1)
KDM6A = KDM6A (Homo sapiens, UniProt O15550)
KDM2A = target: T1, KDM2A (Homo sapiens, UniProt Q9Y2K7)
T1 sequence (Q9Y2K7 1-1162): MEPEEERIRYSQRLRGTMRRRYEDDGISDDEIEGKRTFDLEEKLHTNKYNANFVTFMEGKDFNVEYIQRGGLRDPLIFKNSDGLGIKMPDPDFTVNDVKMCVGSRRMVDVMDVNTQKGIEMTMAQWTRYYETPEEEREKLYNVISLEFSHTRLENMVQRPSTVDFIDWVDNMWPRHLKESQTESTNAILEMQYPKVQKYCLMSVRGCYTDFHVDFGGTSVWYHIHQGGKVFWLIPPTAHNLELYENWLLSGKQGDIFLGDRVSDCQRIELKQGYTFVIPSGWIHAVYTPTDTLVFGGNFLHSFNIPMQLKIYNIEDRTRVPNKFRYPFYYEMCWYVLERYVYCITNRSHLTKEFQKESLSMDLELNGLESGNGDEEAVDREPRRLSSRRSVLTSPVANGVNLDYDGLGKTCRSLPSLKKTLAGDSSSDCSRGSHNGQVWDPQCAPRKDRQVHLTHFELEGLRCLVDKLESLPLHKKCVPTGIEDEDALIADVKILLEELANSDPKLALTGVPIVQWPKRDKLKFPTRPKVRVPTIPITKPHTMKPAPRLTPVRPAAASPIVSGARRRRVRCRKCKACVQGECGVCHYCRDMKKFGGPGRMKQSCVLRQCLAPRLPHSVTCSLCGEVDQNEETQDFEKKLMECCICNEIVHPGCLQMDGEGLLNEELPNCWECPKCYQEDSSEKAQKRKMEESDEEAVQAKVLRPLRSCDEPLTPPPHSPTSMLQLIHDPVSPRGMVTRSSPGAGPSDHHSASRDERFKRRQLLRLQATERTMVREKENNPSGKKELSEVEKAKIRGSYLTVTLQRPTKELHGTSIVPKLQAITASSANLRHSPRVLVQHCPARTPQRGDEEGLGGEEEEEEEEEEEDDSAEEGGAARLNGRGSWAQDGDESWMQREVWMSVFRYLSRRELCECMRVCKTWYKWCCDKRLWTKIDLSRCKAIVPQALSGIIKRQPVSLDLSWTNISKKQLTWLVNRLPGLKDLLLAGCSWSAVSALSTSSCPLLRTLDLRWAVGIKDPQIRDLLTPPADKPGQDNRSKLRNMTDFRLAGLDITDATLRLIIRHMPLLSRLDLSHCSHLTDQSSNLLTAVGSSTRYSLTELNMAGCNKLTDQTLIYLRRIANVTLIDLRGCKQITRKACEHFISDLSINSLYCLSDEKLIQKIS

KDM4B = target: T2, KDM4B (Homo sapiens, UniProt O94953)
T2 sequence (O94953 1-1096): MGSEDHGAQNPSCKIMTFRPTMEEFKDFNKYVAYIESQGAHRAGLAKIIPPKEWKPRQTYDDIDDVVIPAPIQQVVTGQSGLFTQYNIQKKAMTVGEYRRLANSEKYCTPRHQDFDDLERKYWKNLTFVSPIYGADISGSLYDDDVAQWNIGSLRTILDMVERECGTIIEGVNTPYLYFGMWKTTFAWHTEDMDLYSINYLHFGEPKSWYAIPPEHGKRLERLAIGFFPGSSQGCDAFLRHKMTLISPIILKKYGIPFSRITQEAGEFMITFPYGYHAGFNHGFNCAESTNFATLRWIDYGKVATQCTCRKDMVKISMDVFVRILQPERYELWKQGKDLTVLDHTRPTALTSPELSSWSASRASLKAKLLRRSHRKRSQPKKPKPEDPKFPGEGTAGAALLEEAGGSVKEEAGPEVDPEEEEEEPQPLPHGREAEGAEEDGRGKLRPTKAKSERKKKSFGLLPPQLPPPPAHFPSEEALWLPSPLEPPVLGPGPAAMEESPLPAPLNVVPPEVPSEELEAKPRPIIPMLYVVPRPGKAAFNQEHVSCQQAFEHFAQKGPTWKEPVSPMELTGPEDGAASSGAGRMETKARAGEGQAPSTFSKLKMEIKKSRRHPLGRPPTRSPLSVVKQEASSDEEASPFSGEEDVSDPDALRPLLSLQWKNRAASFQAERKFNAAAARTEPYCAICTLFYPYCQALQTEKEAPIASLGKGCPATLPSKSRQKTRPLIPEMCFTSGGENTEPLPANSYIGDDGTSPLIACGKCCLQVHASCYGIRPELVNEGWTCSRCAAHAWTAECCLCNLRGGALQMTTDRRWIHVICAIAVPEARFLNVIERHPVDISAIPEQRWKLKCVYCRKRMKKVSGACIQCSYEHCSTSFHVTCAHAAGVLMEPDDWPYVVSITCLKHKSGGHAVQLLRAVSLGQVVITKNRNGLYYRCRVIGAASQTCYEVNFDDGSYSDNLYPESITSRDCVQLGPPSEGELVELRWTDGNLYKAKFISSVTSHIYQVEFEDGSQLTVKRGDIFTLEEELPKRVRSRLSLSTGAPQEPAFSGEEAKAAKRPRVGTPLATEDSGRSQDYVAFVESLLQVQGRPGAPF

KDM6B = KDM6B (Homo sapiens, UniProt O15054)
KDM6B, sequence (O15054 whole entry): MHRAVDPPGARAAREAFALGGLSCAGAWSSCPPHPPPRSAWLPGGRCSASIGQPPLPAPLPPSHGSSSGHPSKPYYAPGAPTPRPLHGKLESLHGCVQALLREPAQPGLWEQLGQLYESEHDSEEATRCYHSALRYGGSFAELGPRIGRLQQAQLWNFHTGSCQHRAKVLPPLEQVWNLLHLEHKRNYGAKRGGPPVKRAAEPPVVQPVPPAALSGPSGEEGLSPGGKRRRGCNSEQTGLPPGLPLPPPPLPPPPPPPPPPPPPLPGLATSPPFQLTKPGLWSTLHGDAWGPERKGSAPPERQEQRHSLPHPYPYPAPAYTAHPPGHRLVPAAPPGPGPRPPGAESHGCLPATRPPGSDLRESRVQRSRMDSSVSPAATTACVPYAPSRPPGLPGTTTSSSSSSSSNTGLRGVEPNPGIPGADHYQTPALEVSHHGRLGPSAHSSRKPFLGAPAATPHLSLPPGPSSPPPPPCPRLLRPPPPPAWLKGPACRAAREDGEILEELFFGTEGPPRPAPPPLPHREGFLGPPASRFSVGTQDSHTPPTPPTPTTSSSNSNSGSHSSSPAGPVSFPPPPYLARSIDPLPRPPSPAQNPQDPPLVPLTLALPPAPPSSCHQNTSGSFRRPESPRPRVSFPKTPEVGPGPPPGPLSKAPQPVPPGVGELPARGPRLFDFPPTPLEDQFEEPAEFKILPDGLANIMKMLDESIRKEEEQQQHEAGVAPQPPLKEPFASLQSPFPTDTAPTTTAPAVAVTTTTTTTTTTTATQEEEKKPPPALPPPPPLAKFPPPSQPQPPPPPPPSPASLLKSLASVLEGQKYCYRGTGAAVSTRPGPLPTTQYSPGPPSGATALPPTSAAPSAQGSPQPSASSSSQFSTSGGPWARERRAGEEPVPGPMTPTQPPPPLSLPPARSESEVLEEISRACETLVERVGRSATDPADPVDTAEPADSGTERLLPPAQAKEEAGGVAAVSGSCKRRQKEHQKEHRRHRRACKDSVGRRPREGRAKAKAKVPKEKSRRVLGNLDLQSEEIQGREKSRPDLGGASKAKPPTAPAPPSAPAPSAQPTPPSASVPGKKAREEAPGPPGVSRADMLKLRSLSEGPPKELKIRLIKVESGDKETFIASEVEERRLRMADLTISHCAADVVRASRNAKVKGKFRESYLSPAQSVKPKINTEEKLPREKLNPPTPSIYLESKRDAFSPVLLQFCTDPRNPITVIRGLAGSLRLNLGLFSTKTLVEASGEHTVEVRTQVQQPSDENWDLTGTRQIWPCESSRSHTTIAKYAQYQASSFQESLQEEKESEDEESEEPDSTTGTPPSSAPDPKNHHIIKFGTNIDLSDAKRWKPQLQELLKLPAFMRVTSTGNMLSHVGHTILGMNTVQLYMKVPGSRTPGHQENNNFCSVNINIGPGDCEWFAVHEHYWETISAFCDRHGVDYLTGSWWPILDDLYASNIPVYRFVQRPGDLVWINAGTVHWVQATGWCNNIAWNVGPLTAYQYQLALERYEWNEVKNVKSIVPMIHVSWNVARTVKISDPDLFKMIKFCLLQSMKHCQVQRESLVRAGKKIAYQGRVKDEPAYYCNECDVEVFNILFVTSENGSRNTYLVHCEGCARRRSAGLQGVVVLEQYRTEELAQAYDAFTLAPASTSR

KDM5B, sequence (Q9UGL1 whole entry): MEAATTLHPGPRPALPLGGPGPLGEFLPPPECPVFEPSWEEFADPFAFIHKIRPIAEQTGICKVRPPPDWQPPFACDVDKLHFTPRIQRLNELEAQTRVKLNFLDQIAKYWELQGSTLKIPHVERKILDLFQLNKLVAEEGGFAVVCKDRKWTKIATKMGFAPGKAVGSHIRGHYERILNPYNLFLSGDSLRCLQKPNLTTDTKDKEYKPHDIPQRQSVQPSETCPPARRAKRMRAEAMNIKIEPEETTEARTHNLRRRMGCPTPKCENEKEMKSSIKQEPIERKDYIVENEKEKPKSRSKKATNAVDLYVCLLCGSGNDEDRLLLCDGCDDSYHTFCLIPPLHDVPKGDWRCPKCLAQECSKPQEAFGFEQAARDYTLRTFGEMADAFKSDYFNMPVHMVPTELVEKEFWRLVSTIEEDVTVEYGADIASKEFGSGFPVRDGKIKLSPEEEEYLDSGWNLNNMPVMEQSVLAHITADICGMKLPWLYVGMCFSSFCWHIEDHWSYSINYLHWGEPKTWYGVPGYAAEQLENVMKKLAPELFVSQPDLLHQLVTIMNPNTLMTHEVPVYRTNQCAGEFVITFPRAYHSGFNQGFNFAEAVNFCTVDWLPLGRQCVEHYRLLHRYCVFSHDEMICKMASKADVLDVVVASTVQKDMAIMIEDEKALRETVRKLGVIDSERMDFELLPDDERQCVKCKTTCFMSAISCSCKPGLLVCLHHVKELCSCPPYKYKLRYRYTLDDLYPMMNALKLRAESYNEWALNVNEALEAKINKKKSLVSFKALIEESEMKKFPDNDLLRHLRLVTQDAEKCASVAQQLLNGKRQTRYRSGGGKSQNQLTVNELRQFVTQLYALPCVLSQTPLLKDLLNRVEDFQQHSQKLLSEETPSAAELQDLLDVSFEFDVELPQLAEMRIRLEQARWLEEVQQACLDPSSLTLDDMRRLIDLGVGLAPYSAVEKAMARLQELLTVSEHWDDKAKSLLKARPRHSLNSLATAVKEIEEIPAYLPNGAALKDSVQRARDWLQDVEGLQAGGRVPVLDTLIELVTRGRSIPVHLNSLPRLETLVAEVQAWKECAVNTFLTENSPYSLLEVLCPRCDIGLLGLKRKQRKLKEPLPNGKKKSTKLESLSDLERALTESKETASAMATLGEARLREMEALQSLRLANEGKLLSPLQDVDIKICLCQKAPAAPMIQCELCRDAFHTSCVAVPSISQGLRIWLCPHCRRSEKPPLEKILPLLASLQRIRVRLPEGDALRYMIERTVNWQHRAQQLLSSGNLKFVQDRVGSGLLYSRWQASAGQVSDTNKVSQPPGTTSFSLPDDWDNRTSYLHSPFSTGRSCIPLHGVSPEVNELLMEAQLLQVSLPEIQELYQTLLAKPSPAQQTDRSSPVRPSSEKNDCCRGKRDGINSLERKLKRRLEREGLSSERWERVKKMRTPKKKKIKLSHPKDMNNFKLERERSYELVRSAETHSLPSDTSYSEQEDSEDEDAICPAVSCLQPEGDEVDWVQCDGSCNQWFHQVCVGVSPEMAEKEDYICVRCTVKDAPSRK
KDM6A, sequence (O15550 whole entry): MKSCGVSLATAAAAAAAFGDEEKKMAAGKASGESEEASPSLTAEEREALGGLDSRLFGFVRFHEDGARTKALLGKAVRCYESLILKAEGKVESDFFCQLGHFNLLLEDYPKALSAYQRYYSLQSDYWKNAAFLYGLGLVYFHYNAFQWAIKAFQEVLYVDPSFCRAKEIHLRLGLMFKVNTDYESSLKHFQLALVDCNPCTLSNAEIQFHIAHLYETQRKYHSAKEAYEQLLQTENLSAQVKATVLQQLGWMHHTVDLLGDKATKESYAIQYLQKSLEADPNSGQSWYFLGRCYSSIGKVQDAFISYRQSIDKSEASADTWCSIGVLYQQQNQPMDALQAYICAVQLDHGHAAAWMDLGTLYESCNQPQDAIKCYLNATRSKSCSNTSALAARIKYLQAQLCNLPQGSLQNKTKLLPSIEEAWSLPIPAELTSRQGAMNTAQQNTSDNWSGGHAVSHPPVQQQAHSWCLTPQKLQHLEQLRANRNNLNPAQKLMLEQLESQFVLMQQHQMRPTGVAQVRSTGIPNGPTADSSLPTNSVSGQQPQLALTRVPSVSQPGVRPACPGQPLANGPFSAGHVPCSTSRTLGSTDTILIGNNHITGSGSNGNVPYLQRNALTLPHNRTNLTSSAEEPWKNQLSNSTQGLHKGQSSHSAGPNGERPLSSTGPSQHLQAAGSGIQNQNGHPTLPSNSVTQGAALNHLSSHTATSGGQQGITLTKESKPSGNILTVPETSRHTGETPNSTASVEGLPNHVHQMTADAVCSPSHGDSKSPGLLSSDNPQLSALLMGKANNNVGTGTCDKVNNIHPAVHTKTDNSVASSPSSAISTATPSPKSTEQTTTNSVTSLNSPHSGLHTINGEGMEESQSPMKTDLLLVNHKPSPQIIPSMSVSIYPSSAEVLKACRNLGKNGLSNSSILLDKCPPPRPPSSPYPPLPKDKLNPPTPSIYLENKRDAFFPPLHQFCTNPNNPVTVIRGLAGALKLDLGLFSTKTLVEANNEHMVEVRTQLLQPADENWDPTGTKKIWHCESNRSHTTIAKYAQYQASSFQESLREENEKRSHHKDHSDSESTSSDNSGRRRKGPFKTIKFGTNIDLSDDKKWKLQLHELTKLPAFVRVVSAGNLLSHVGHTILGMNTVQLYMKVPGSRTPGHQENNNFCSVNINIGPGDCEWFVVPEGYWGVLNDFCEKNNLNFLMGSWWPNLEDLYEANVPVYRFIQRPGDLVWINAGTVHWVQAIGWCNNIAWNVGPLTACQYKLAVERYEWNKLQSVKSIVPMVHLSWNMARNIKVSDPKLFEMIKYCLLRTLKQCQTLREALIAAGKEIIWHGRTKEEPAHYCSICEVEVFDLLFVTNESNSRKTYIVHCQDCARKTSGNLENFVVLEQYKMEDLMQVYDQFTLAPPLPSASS

For `CN(c1ccccc1)c1ccc2c(c1)CCC[C@H]2CNc1cnccc1C(=O)O` [Compound I, 3-({[(1R)-6-[methyl(phenyl)amino]-1,2,3,4-tetrahydronaphthalen-1-yl]methyl}amino)pyridine-4-carboxylic Acid], the “effect on the demethylase activity of KDM5B” value (KDM5B) was “weak effect”, the pIC50 (KDM5B; read-out: Compound I IC50, KDM5B) was 6.12 and the pIC50 (KDM6A) was under 5.00. It also gave a pIC50 (KDM2A) of under 5.00, a pIC50 (KDM4B; read-out: Compound I IC50) of 7.25 and a pIC50 (KDM4B; read-out: IC50, demethylase activity) of over 6.98. It also gave a pIC50 (KDM6B) of under 5.00.
